Measured values as given in the NIST ThermoML archive (doi:10.1021/je100687x).

Assay: xn = mol fraction of the nth substance listed
Conditions: 101 kPa, Liquid; for electrical conductivity: Crison GLP 31+ conductivimeter

CCCCn1cc[n+](C)c1.F[B-](F)(F)F [1-butyl-3-methylimidazolium tetrafluoroborate] + CCO
Conditions	electrical conductivity [S/m]	viscosity [mPa·s]
288.15 K, x2 = 0	–	173.5
288.15 K, x2 = 0.0765	–	121.4
288.15 K, x2 = 0.199	–	69.06
288.15 K, x2 = 0.2894	–	45.23
288.15 K, x2 = 0.3918	–	28.39
288.15 K, x2 = 0.4976	–	18.13
288.15 K, x2 = 0.6001	–	12.35
288.15 K, x2 = 0.717	–	7.86
288.15 K, x2 = 0.7998	–	5.676
288.15 K, x2 = 0.9014	–	3.06
298.15 K, x2 = 0	0.352	99.2
298.15 K, x2 = 0.0368	0.393	–
298.15 K, x2 = 0.0765	–	72.49
298.15 K, x2 = 0.1136	0.522	–
298.15 K, x2 = 0.1492	0.594	–
298.15 K, x2 = 0.199	–	44.05
298.15 K, x2 = 0.2894	–	30.15
298.15 K, x2 = 0.2992	0.939	–
298.15 K, x2 = 0.3918	–	19.7
298.15 K, x2 = 0.4162	1.268	–
298.15 K, x2 = 0.4976	–	12.97
298.15 K, x2 = 0.5137	1.551	–
298.15 K, x2 = 0.5866	1.729	–
298.15 K, x2 = 0.6001	–	9.038
298.15 K, x2 = 0.6426	1.826	–
298.15 K, x2 = 0.6863	1.871	–
298.15 K, x2 = 0.717	–	5.25
298.15 K, x2 = 0.7204	1.874	–
298.15 K, x2 = 0.7498	1.859	–
298.15 K, x2 = 0.7947	1.745	–
298.15 K, x2 = 0.7998	–	4.286
298.15 K, x2 = 0.8394	1.564	–
298.15 K, x2 = 0.8763	1.343	–
298.15 K, x2 = 0.8835	1.297	–
298.15 K, x2 = 0.8908	1.249	–
298.15 K, x2 = 0.9014	–	2.371
298.15 K, x2 = 0.9034	1.155	–
298.15 K, x2 = 0.9134	1.077	–
298.15 K, x2 = 0.9217	1.01	–
298.15 K, x2 = 0.9287	0.94	–
298.15 K, x2 = 0.9347	0.874	–
298.15 K, x2 = 0.9399	0.825	–
298.15 K, x2 = 0.9493	0.733	–
298.15 K, x2 = 0.9564	0.658	–
298.15 K, x2 = 0.9617	0.597	–
298.15 K, x2 = 0.9668	0.536	–
298.15 K, x2 = 0.9755	0.423	–
298.15 K, x2 = 0.9897	0.221	–
298.15 K, x2 = 0.9916	0.194	–
298.15 K, x2 = 0.9934	0.162	–
298.15 K, x2 = 0.9972	0.0851	–
308.15 K, x2 = 0	–	61.3
308.15 K, x2 = 0.0765	–	46.39
308.15 K, x2 = 0.199	–	29.81
308.15 K, x2 = 0.2894	–	21.18
308.15 K, x2 = 0.3918	–	14.45
308.15 K, x2 = 0.4976	–	9.836
308.15 K, x2 = 0.6001	–	7.026
308.15 K, x2 = 0.717	–	4.056
308.15 K, x2 = 0.7998	–	3.363
308.15 K, x2 = 0.9014	–	1.947
318.15 K, x2 = 0	–	40.4
318.15 K, x2 = 0.0765	–	31.43
318.15 K, x2 = 0.199	–	21.16
318.15 K, x2 = 0.2894	–	15.5
318.15 K, x2 = 0.3918	–	11.01
318.15 K, x2 = 0.4976	–	7.691
318.15 K, x2 = 0.6001	–	5.567
318.15 K, x2 = 0.717	–	3.252
318.15 K, x2 = 0.7998	–	2.723
318.15 K, x2 = 0.9014	–	1.641

CCCCCCn1cc[n+](C)c1.F[B-](F)(F)F [1-hexyl-3-methylimidazolium tetrafluoroborate] + CCO
Conditions	electrical conductivity [S/m]	viscosity [mPa·s]
288.15 K, x2 = 0	–	357.5
288.15 K, x2 = 0.1	–	207.2
288.15 K, x2 = 0.197	–	118.9
288.15 K, x2 = 0.298	–	69.02
288.15 K, x2 = 0.3877	–	48.92
288.15 K, x2 = 0.4921	–	27.71
288.15 K, x2 = 0.6009	–	16.92
288.15 K, x2 = 0.7	–	9.866
288.15 K, x2 = 0.8002	–	5.545
288.15 K, x2 = 0.902	–	2.893
298.15 K, x2 = 0	0.126	190.9
298.15 K, x2 = 0.1	–	119.2
298.15 K, x2 = 0.197	–	72.6
298.15 K, x2 = 0.2439	0.33	–
298.15 K, x2 = 0.298	–	43.77
298.15 K, x2 = 0.3877	–	32.06
298.15 K, x2 = 0.3981	0.565	–
298.15 K, x2 = 0.4566	0.66	–
298.15 K, x2 = 0.4921	–	18.86
298.15 K, x2 = 0.507	0.769	–
298.15 K, x2 = 0.5491	0.877	–
298.15 K, x2 = 0.5861	0.947	–
298.15 K, x2 = 0.6009	–	12.09
298.15 K, x2 = 0.6189	1.034	–
298.15 K, x2 = 0.645	1.083	–
298.15 K, x2 = 0.6708	1.129	–
298.15 K, x2 = 0.6938	1.17	–
298.15 K, x2 = 0.7	–	7.513
298.15 K, x2 = 0.7145	1.206	–
298.15 K, x2 = 0.733	1.216	–
298.15 K, x2 = 0.7495	1.222	–
298.15 K, x2 = 0.7648	1.244	–
298.15 K, x2 = 0.7909	1.25	–
298.15 K, x2 = 0.8002	–	4.191
298.15 K, x2 = 0.8217	1.225	–
298.15 K, x2 = 0.8454	1.19	–
298.15 K, x2 = 0.8637	1.144	–
298.15 K, x2 = 0.8755	1.109	–
298.15 K, x2 = 0.8857	1.07	–
298.15 K, x2 = 0.8946	1.033	–
298.15 K, x2 = 0.902	–	2.284
298.15 K, x2 = 0.9042	0.98	–
298.15 K, x2 = 0.9133	0.929	–
298.15 K, x2 = 0.9214	0.879	–
298.15 K, x2 = 0.9267	0.832	–
298.15 K, x2 = 0.9347	0.778	–
298.15 K, x2 = 0.9437	0.702	–
298.15 K, x2 = 0.9526	0.621	–
298.15 K, x2 = 0.9593	0.57	–
298.15 K, x2 = 0.9686	0.473	–
298.15 K, x2 = 0.9758	0.393	–
298.15 K, x2 = 0.9803	0.331	–
298.15 K, x2 = 0.9858	0.262	–
298.15 K, x2 = 0.9892	0.214	–
298.15 K, x2 = 0.9934	0.147	–
298.15 K, x2 = 0.996	0.102	–
298.15 K, x2 = 0.9979	0.0636	–
308.15 K, x2 = 0	–	110.3
308.15 K, x2 = 0.1	–	74.2
308.15 K, x2 = 0.197	–	46.59
308.15 K, x2 = 0.298	–	29.55
308.15 K, x2 = 0.3877	–	22.1
308.15 K, x2 = 0.4921	–	13.73
308.15 K, x2 = 0.6009	–	9.004
308.15 K, x2 = 0.7	–	5.487
308.15 K, x2 = 0.8002	–	3.278
308.15 K, x2 = 0.902	–	1.867
318.15 K, x2 = 0	–	68.5
318.15 K, x2 = 0.1	–	48.17
318.15 K, x2 = 0.197	–	32.05
318.15 K, x2 = 0.298	–	21.19
318.15 K, x2 = 0.3877	–	16.11
318.15 K, x2 = 0.4921	–	10.3
318.15 K, x2 = 0.6009	–	6.945
318.15 K, x2 = 0.7	–	4.498
318.15 K, x2 = 0.8002	–	2.636
318.15 K, x2 = 0.902	–	1.506
